Assay results: ChEMBL document CHEMBL4033695, “Synthesis and biological evaluation of novel 5-aryl-4-(5-nitrofuran-2-yl)-pyrimidines as potential anti-bacterial agents” (Bioorg Med Chem Lett, 2017)
In brackets after ≈: the same amount, converted by molar mass.

Assays:
Citrobacter braakii = assay: Antibacterial activity against Citrobacter braakii ATCC 101/57 by two-fold serial dilution method; format: functional
Neisseria gonorrhoeae [1] = assay: Antibacterial activity against gonorrhea patient derived azithromycin resistant-Neisseria gonorrhoeae by two-fold serial dilution method; format: functional
[2] = Toxicity in mouse administered as single oral dose measured for 14 days; conditions: in vivo
Pseudomonas aeruginosa = assay: Antibacterial activity against Pseudomonas aeruginosa ATCC 9027 by two-fold serial dilution method; format: functional
Neisseria gonorrhoeae [3] = assay: Potency index, ratio of spectinomycin MIC to compound MIC for Neisseria gonorrhoeae NCTC 8375/ATCC 19424; format: functional
Staphylococcus aureus [4] = assay: Antibacterial activity against Staphylococcus aureus ATCC 25923 by two-fold serial dilution method; format: functional
Klebsiella pneumoniae = assay: Antibacterial activity against Klebsiella pneumoniae ATCC 13883 by two-fold serial dilution method; format: functional
[5] = Potency index, ratio of compound LD50 to isoniazid LD50 for mouse; format: ADME; conditions: in vivo
Staphylococcus aureus [6] = assay: Potency index, ratio of spectinomycin MIC to compound MIC for Staphylococcus aureus ATCC 25923; format: functional
Escherichia coli = assay: Antibacterial activity against Escherichia coli ATCC 8739 by two-fold serial dilution method; format: functional
Proteus vulgaris = assay: Antibacterial activity against Proteus vulgaris RCPM 160125 (222) by two-fold serial dilution method; format: functional
Neisseria gonorrhoeae [7] = assay: Antibacterial activity against Neisseria gonorrhoeae NCTC 12700/ATCC 49226 by two-fold serial dilution method; format: functional
[8] = Cytotoxicity against mouse MacCoy B cells after 24 hrs by p-Nitro-Blue tetrazolium chloride dye based colorometric method; format: cell-based
Neisseria gonorrhoeae [9] = assay: Antibacterial activity against Neisseria gonorrhoeae NCTC 8375/ATCC 19424 by two-fold serial dilution method; format: functional
[10] = system: Mycobacterium tuberculosis; assay: Antitubercular activity against Mycobacterium tuberculosis H37Rv after […] by micro broth dilution method; format: functional
Serratia marcescens = assay: Antibacterial activity against Serratia marcescens ATCC 13880 by two-fold serial dilution method; format: functional
Shigella flexneri = assay: Antibacterial activity against Shigella flexneri RCPM 1a8516 by two-fold serial dilution method; format: functional
Neisseria gonorrhoeae [11] = assay: Potency index, ratio of spectinomycin MIC to compound MIC for Neisseria gonorrhoeae NCTC 12700/ATCC 49226; format: functional
[12] = Toxicity in orally dosed mouse; format: organism-based; conditions: in vivo, po

| SMILES | MIC (Citrobacter braakii) [µg/mL] | MIC (Neisseria gonorrhoeae [1]) [µg/mL] | LD50 at 336 h [2] [mg/kg] | MIC (Pseudomonas aeruginosa) [µg/mL] | Ratio (Neisseria gonorrhoeae [3]) | MIC (Staphylococcus aureus [4]) [µg/mL] | MIC (Klebsiella pneumoniae) [µg/mL] | selectivity ratio [5] | Ratio (Staphylococcus aureus [6]) | MIC (Escherichia coli) [µg/mL] | MIC (Proteus vulgaris) [µg/mL] | MIC (Neisseria gonorrhoeae [7]) [µg/mL] | IC50 [8] [µM] | MIC (Neisseria gonorrhoeae [9]) [µg/mL] | MIC [10] [µg/mL] | MIC (Serratia marcescens) [µg/mL] | MIC (Shigella flexneri) [µg/mL] | Ratio (Neisseria gonorrhoeae [11]) | LD50 [12] [mg/kg] |
| --- | --- | --- | --- | --- | --- | --- | --- | --- | --- | --- | --- | --- | --- | --- | --- | --- | --- | --- | --- |
| O=[N+]([O-])c1ccc(-c2ncncc2Br)o1 | > 250 | 3.9 (≈ 14.4 µM) | 300 | > 250 | <=16 | 7.8 (≈ 28.9 µM) | > 250 | 2 | 4 | > 250 | > 250 | 0.97 (≈ 3.59 µM) | 167 | 7.8 (≈ 28.9 µM) | 1.5 (≈ 5.55 µM) | > 250 | 7.8 (≈ 28.9 µM) | <=16 |  |
| O=[N+]([O-])c1ccc(-c2ncncc2-c2ccc(C(F)(F)F)cc2)o1 |  |  |  |  |  |  |  |  |  |  |  |  |  | 500 (≈ 1490 µM) | 12.5 (≈ 37.3 µM) |  |  |  |  |
| NNC(=O)c1ccncc1 [ISONIAZID] |  |  |  |  |  |  |  |  |  |  |  |  |  |  | 0.1 (≈ 0.729 µM) |  |  |  |  |
| O=[N+]([O-])c1ccc(-c2ncncc2-c2ccccc2C(F)(F)F)o1 | > 250 | 15.6 (≈ 46.5 µM) |  | > 250 | <=16 | 15.6 (≈ 46.5 µM) | > 250 |  | 4 | > 250 | > 250 | 3.9 (≈ 11.6 µM) | 74.4 | 15.6 (≈ 46.5 µM) | 12.5 (≈ 37.3 µM) | > 250 | 62.5 (≈ 186 µM) | <=16 |  |
| O=[N+]([O-])c1ccc(-c2ncncc2-c2ccc(F)cc2)o1 |  | 31.2 (≈ 110 µM) |  |  | <=16 | 62.5 (≈ 219 µM) |  |  | 4 |  |  | 31.2 (≈ 110 µM) | 69.8 | 15.6 (≈ 54.7 µM) | 12.5 (≈ 43.8 µM) |  |  | <=16 |  |
| O=[N+]([O-])c1ccc(-c2ncncc2-c2ccccc2F)o1 | > 250 | 7.8 (≈ 27.3 µM) |  | > 250 | <=16 | 15.6 (≈ 54.7 µM) | > 250 |  | 4 | > 250 | > 250 | 1.95 (≈ 6.84 µM) | 67.5 | 7.8 (≈ 27.3 µM) | 12.5 (≈ 43.8 µM) | > 250 | > 250 | <=16 |  |
| O=[N+]([O-])c1ccc(-c2ncncc2-c2ccc(C(F)(F)F)cc2C(F)(F)F)o1 | > 500 | 1000 (≈ 2480 µM) |  | > 500 | <=16 | 15.6 (≈ 38.7 µM) | > 500 |  | 4 | > 500 | > 250 | 3.9 (≈ 9.67 µM) | 45.5 | 1000 (≈ 2480 µM) | 12.5 (≈ 31 µM) | > 500 | > 250 | <=16 |  |
| O=[N+]([O-])c1ccc(-c2ncncc2-c2cc(C(F)(F)F)cc(C(F)(F)F)c2)o1 |  |  |  |  |  |  |  |  |  |  |  |  |  | > 1000 | 12.5 (≈ 31 µM) |  |  |  |  |
| O=[N+]([O-])c1ccc(-c2ncncc2-c2cc(F)cc(F)c2)o1 |  |  |  |  |  |  |  |  |  |  |  |  |  | > 1000 | 12.5 (≈ 41.2 µM) |  |  |  |  |
| O=[N+]([O-])c1ccc(-c2ncncc2-c2cccc(F)c2)o1 | > 250 | 15.6 (≈ 54.7 µM) |  | > 250 | <=16 | > 250 | > 250 |  | 4 | > 250 | > 250 | 0.97 (≈ 3.4 µM) | 100 | 3.9 (≈ 13.7 µM) | 12.5 (≈ 43.8 µM) | > 250 | > 250 | <=16 |  |
| NC(=O)c1cnccn1 [PYRAZINAMIDE] |  |  |  |  |  |  |  |  |  |  |  |  |  |  | 12.5 (≈ 102 µM) |  |  |  |  |
| O=[N+]([O-])c1ccc(-c2ncncc2-c2ccc(F)cc2F)o1 | > 500 | 31.2 (≈ 103 µM) |  | > 500 | <=16 | 31.2 (≈ 103 µM) | > 500 |  | 4 | > 500 | > 250 | 3.9 (≈ 12.9 µM) | 66.8 | 31.2 (≈ 103 µM) | 12.5 (≈ 41.2 µM) | > 500 | > 250 | <=16 |  |
| CN[C@@H]1[C@H](O)[C@H](NC)[C@H]2O[C@@]3(O)C(=O)C[C@@H](C)O[C@H]3O[C@@H]2[C@H]1O [SPECTINOMYCIN] | 31.2 (≈ 94 µM) | 15.6 (≈ 46.9 µM) |  | 250 (≈ 752 µM) |  | 31.2 (≈ 94 µM) | 15.6 (≈ 46.9 µM) |  |  | 15.6 (≈ 46.9 µM) | 125 (≈ 376 µM) | 15.6 (≈ 46.9 µM) | > 752 | 15.6 (≈ 46.9 µM) |  | 15.6 (≈ 46.9 µM) | 7.8 (≈ 23.5 µM) |  | > 10000 |
| O=[N+]([O-])c1ccc(-c2ncncc2-c2cccc(C(F)(F)F)c2)o1 |  |  |  |  |  |  |  |  |  |  |  |  |  | 125 (≈ 373 µM) | 12.5 (≈ 37.3 µM) |  |  |  |  |
| O=[N+]([O-])c1ccc(-c2ncncc2-c2ccccc2)o1 | > 250 | 7.8 (≈ 29.2 µM) | 450 | > 250 | <=16 | 15.6 (≈ 58.4 µM) | > 250 | 3 | 4 | > 250 | > 250 | 1.95 (≈ 7.3 µM) | 52.5 | 3.9 (≈ 14.6 µM) | 3.1 (≈ 11.6 µM) | > 250 | > 250 | <=16 |  |
